Experimental findings from paper PMC5282848, “Ancient coexistence of norepinephrine, tyramine, and octopamine signaling in bilaterians” (BMC Biology, 2017) are described below.

Read-outs that look alike come from different tables or passages of the source.

Assay in all cases: Ca2+ mobilization, GFP-apoaequorin luminescence in CHO-K1 with Gα-16
Holding throughout (assay type): cell-based
A general note: Calcium assays in cells follow changes in intracellular calcium, usually with a dye or a luminescent sensor.

Assay [1] addresses T1, P. dumerilii α2-adrenergic receptor (Platynereis dumerilii, UniProt A0A1J0F5X6).
T1 construct: full-length in pcDNA3.1(+), expressed in CHO-K1 with Gα-16 and GFP-apoaequorin
T1 sequence (A0A1J0F5X6 1-619): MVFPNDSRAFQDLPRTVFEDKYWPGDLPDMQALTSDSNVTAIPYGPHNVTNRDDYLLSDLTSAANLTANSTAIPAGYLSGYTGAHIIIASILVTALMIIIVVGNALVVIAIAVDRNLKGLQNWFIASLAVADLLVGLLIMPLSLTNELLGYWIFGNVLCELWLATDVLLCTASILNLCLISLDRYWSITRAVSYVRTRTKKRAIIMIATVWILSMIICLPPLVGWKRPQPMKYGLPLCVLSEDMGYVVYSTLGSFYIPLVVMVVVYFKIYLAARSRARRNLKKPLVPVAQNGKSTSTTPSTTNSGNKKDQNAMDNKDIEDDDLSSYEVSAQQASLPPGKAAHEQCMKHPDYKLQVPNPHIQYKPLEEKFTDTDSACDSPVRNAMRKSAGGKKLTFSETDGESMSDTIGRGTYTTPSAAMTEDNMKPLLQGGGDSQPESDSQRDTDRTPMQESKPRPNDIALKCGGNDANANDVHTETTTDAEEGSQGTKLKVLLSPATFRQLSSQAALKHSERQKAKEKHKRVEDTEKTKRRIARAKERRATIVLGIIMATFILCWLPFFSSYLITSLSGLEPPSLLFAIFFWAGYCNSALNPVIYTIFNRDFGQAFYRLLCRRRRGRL
The text has this: Ca2+ mobilization, GFP-apoaequorin luminescence in CHO-K1 with Gα-16 on P. dumerilii α2-adrenergic receptor

Assay [2] concerns the target T2, Platynereis dumerilii α1-adrenergic receptor (Platynereis dumerilii, UniProt A0A1J0F5Z2).
T2 construct: full-length in pcDNA3.1(+), expressed in CHO-K1 with Gα-16 and GFP-apoaequorin
T2 sequence (A0A1J0F5Z2 1-651): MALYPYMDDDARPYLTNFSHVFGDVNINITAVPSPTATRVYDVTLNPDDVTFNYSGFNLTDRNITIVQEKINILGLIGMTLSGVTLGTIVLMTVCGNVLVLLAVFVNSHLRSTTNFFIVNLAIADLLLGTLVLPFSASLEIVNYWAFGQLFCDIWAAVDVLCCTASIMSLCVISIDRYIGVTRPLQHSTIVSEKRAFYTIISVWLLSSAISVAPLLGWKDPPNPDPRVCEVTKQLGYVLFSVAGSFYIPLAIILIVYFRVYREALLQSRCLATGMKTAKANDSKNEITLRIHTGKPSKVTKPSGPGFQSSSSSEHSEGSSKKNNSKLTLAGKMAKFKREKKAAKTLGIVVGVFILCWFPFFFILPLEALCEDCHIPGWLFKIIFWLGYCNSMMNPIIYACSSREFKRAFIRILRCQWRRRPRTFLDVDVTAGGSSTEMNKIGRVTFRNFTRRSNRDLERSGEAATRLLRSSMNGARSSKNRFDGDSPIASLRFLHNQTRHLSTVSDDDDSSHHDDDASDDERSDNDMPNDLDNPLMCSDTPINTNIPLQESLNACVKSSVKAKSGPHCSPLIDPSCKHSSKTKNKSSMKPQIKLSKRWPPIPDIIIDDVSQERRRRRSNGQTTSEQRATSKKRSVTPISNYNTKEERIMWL
The following applies: read-out: Norepinephrine. The text has this:
Ca2+ mobilization, GFP-apoaequorin luminescence in CHO-K1 with Gα-16 on Platynereis dumerilii α1-adrenergic receptor

For assay [3], the target named is T3, S. kowalevskii α1-adrenergic (Saccoglossus kowalevskii, UniProt A0A0U2M149).
T3 construct: full-length in pcDNA3.1(+), expressed in CHO-K1 with Gα-16 and GFP-apoaequorin
T3 sequence (A0A0U2M149 1-774): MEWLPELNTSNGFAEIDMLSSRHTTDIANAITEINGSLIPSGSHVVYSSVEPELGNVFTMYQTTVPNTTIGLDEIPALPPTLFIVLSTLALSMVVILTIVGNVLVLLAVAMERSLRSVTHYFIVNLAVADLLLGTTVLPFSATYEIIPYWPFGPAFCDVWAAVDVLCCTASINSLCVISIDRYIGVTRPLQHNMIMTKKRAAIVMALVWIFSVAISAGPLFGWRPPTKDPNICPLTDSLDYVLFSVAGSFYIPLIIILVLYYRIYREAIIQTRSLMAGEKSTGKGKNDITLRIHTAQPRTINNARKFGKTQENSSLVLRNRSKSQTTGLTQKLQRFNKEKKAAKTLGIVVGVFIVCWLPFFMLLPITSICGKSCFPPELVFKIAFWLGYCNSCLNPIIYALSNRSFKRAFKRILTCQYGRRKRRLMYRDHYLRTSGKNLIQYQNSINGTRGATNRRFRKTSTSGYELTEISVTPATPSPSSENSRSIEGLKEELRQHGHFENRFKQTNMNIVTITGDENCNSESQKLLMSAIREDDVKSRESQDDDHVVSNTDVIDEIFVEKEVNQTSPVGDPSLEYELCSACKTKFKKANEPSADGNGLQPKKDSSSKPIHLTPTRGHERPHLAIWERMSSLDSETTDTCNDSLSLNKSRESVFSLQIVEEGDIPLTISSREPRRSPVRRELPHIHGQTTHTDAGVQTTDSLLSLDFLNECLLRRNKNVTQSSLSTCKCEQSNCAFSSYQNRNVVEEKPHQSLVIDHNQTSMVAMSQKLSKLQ
The following applies: read-out: Norepinephrine. From the text:
Ca2+ mobilization, GFP-apoaequorin luminescence in CHO-K1 with Gα-16 on S. kowalevskii α1-adrenergic

The target of assay [4] is T4, P. caudatus α2-adrenergic (Priapulus caudatus, UniProt A0ABM1F9E8).
T4 construct: gene LOC106820961; full-length in pcDNA3.1(+), expressed in CHO-K1 with Gα-16 and GFP-apoaequorin
T4 sequence (A0ABM1F9E8 1-470): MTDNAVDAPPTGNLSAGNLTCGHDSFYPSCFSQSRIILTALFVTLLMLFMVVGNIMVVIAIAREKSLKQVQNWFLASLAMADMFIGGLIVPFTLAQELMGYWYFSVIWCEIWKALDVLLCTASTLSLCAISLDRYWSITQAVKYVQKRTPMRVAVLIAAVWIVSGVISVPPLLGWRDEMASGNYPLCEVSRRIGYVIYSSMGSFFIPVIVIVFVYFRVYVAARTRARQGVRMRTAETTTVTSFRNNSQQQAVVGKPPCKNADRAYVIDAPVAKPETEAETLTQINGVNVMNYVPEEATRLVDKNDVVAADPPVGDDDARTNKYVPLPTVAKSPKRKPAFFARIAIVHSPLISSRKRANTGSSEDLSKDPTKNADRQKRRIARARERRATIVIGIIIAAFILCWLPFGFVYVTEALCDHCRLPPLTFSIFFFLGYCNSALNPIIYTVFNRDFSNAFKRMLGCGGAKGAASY
The text has this:
Ca2+ mobilization, GFP-apoaequorin luminescence in CHO-K1 with Gα-16 on P. caudatus α2-adrenergic

Assay [5] concerns the target T5, Priapulus caudatus α1-adrenergic (Priapulus caudatus, UniProt A0ABM1DSS1).
T5 construct: gene LOC106805782; full-length in pcDNA3.1(+), expressed in CHO-K1 with Gα-16 and GFP-apoaequorin
T5 sequence (A0ABM1DSS1 1-550): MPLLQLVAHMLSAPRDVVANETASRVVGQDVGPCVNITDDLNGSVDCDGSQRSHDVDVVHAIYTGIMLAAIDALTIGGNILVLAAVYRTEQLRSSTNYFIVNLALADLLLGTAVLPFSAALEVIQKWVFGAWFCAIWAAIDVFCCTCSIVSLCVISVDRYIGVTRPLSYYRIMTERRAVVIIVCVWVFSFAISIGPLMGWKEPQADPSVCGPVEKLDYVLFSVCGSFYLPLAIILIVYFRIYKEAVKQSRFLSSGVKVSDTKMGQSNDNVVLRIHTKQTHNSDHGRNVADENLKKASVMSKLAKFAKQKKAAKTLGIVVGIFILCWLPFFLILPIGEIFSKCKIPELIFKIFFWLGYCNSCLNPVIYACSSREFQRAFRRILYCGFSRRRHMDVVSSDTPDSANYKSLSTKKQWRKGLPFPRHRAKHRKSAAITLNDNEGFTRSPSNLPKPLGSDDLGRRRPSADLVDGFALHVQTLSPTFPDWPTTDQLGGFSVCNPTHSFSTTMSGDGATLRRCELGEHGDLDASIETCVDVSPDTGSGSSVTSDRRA
Particulars: read-out: Norepinephrine. From the text:
Ca2+ mobilization, GFP-apoaequorin luminescence in CHO-K1 with Gα-16 on Priapulus caudatus α1-adrenergic

In assay [6] the target is T6, S. kowalevskii α2-adrenergic (Saccoglossus kowalevskii, UniProt A0ABM0GQ86).
T6 construct: gene LOC100373264; full-length in pcDNA3.1(+), expressed in CHO-K1 with Gα-16 and GFP-apoaequorin
T6 sequence (A0ABM0GQ86 1-464): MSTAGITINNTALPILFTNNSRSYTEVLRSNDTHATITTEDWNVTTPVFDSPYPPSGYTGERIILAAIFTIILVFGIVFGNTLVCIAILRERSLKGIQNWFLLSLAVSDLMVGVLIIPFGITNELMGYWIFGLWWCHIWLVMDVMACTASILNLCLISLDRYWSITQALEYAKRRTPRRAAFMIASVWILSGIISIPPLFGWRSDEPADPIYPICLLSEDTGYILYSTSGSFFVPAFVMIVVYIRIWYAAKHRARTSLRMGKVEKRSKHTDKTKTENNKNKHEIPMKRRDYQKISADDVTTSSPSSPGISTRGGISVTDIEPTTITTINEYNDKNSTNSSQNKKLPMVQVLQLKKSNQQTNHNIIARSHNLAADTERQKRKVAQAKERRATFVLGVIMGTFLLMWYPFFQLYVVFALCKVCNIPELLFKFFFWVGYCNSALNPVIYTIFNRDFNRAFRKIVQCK
Particulars: read-out: Epinephrine. From the text:
Ca2+ mobilization, GFP-apoaequorin luminescence in CHO-K1 with Gα-16 on S. kowalevskii α2-adrenergic

As for `NC[C@H](O)c1ccc(O)c(O)c1` [norepinephrine], the EC50 in assay [1] (read-out: Norepinephrine) is 8.2 nM; in assay [2], 210 nM; in assay [3], 17 nM; in assay [4] (read-out: Norepinephrine), 470 nM; in assay [5], 7.5 nM.
Turning to `CNC[C@H](O)c1ccc(O)c(O)c1` [epinephrine], the EC50 amounted to 11 nM in assay [1] (read-out: Epinephrine), 450 nM in assay [4] (read-out: Epinephrine) and 2.3 nM in assay [6].
